pEC50: −log10 of the molar value.
These molecules were tested against T1, HlyU (Vibrio vulnificus, UniProt A0A3Q0L222) (assay: Vibrio reporter strain, pKK1305 (PrtxA-lux, activated by HlyU) in wild-type V. vulnificus). Conditions: Compound Group I; HlyU activity (RLU, DMSO = 100%), 30° C.
T1 sequence (A0A3Q0L222 1-98): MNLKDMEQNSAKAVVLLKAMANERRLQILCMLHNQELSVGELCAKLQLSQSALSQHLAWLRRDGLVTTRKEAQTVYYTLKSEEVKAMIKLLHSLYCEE
Assay type: cell-based
Protocol: Meanwhile, verification experiments using the Vibrio reporter strain were also conducted so as to exclude false positive results. It was identified that the effect of the compound was not limited only to E. coli using Vibrio vulnificus, each having the reporter plasmid (pZW1608) inhibited by HlyU, which was used for the E. coli reporter strain, and the plasmid (pKK1305) in which the promoter of the rtxA gene activated by HlyU is cloned in front of the bioluminescence operon.
The constructed wild-type Vibrio reporter strain was treated with sample compounds and cultured at 30° C., and cell growth and luminescence were measured in the same manner as the E. coli strain screening (FIG. 3 and FIG. 4).
In order to identify whether or not a specific structure of CM2660 has a significant effect on HlyU inhibition, the effect of HlyU inhibition by the compound CM2660 and derivatives thereof, “Compound Group I” (FIG. 5) was verified. For the purpose, the pKK1305 plasmid prepared in Example 1 was conjugated to the wild-type Vibrio vulnificus, and the Vibrio reporter strain (pKK1305 in wild-type V. vulnificus) thus produced was treated with various concentrations of the derivative compounds.
While culturing at 30° C., the growth of the reporter strain and the degree of bioluminescence thereof were measured in the same manner as in Example 1, and the RLU was calculated. The RLU of the DMSO-treated control group was expressed as 100% HlyU activity. HlyU activity was plotted according to the concentration of the derivative compound, and EC50 (half maximal effective concentration) was calculated using GraphPad Prism 7.0 (GraphPad Software, San Diego, Calif.) (FIG. 6, Table 2).

Q: With O=C(Nc1scc2c1c(=O)oc1ccccc12)c1ccccc1 [LJ4451] as the molecule, how does the pEC50 read?
A: 3.00

Q: O=C(CCc1ccccc1)Nc1scc2c1c(=O)oc1ccccc12 [LJ4458] was tested. Which pEC50 did it give?
A: 3.06

Same assay, conditions: Compound Group II; HlyU activity (RLU, DMSO = 100%), 30° C.; read-out: EC50

Q: How did the pEC50 turn out when O=C(O)CNC(=O)C#Cc1ccccc1 [LJ4533] was run?
A: 2.94

Q: O=C(O)C#Cc1ccc([N+](=O)[O-])cc1 [LJ4526] was tested. Which pEC50 did it give?
A: 3.85

Q: CC(C)(C)OC(=O)CNC(=O)C#Cc1ccc(N)cc1 [LJ4531] was tested. Which pEC50 did it give?
A: 3.93

Q: How did the pEC50 turn out when CC(C)(C)OC(=O)CNC(=O)C#Cc1cccnc1 [LJ4532] was run?
A: 4.28
